Assays:
RORγ-LBD = target: T1, RORγ-LBD (Homo sapiens, UniProt P51449); assay: RORγ-Ligand Binding Domain (LBD) TR-FRET Assay; assay type: biochemical; conditions: for TR-FRET Assay Max Response: maximum response;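 on TR-FRET Assay Max Response: 665/615 nm signal ratio set to 100 without ursolic acid or test compound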
T1 construct: made in house; host or cells: SF9 cells (baculovirus); used as diluted lysate
T1 sequence (P51449 269-508 limits assumed): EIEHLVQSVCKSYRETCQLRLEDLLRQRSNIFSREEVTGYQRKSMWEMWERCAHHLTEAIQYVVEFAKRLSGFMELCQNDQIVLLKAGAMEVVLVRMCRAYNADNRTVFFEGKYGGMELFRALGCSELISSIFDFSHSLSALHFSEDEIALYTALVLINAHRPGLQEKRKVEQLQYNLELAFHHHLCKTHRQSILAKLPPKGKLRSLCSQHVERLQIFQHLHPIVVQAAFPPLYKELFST
Method in brief: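 TR-FRET read-out using a biotin-tagged SRC1 coactivator LXXLL peptide (200 nM final), with the antagonist ursolic acid present at 2 μM final. Receptor is His-tagged LBD expressed in SF9 cells, ~3 nM final in pH 7.0 Tris/KCl/EDTA/DTT/BSA buffer; compounds in 1% DMSO final.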

Gal4-RORγ-LBD = target: T2, Gal4-RORγ-LBD (Homo sapiens, UniProt P51449); assay: Gal4-RORγ Luciferase Reporter Assay in HEK-293T Cells; assay type: cell-based; conditions: HEK-293 cells; for Gal4-RORγ Assay Max Response: maximum response
T2 construct: expressed in transfected cells
T2 sequence (P51449 269-508 limits assumed): T1 sequence (P51449 269-508 limits assumed)
Method in brief: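 Max Response was taken as the upper plateau of a 4-parameter logistic fit of luciferase signal, normalized to 100 for wells without ursolic acid or compound. Transiently Gal4-RORγ-LBD/Gal4-luc transfected HEK-293 cells carrying […] ursolic acid were incubated with test compounds (0.2% DMSO) overnight at 37 °C and read with One-Glo.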

[1] = luciferase reporter, in presence of ursolic acid
[2] = luciferase reporter, with ursolic acid

Structure (SMILES)	EC50 (RORγ-LBD; RORγ-LBD TR-FRET) [nM]	EC50 (Gal4-RORγ-LBD; [2]) [nM]	further results
C/C(=C\c1ccc2c(c1)N(S(=O)(=O)c1cccc(C(F)(F)F)c1)C[C@H](CCC(=O)N1CCOCC1)O2)c1c(F)cccc1Cl [Example 127B, (S,E)-3-(6-(2-(2-chloro-6-fluorophenyl)prop-1-en-1-yl)-4-((3-(trifluoromethyl)phenyl)sulfonyl)-3,4-dihydro-2H-benzo[b][1,4]oxazin-2-yl)-1-morpholino-propan-1-one]			EC50 (RORγ-LBD; RORγ-LBD TR-FRET assay): < 500 nM; TR-FRET Assay Max Response (RORγ-LBD; RORγ-LBD TR-FRET assay): **** (a value greater than 200); EC50 (Gal4-RORγ-LBD; [1]): < 500 nM; Gal4-RORγ Assay Max Response (Gal4-RORγ-LBD; [1]): ** (a value in the range of greater than 90 to 150)
CCOc1nn(CC)cc1S(=O)(=O)N1C[C@H](CCC(=O)OC)Oc2ccc(/C=C/c3nccs3)cc21 [Example 89R, (S,E)-methyl 3-(4-((3-ethoxy-1-ethyl-1H-pyrazol-4-yl)sulfonyl)-6-(2-(thiazol-2-yl)vinyl)-3,4-dihydro-2H-benzo[b][1,4]oxazin-2-yl)propanoate]	5000 to 10000	> 10000	
COc1cccnc1/C=C/c1ccc2c(c1)N(S(=O)(=O)c1cccc(C(F)(F)F)c1)C[C@H](CCC(=O)O)O2 [Example 89DK, (S,E)-3-(6-(2-(3-methoxypyridin-2-yl)vinyl)-4-((3-(trifluoromethyl)phenyl)-sulfonyl)-3,4-dihydro-2H-benzo[b][1,4]oxazin-2-yl)propanoic acid]	< 500	500 to 5000	
CCOc1ncc(C(F)(F)F)cc1S(=O)(=O)N1C[C@H](CCC(=O)OC)Oc2ccc(/C=C/c3c(OC)cccc3C(F)(F)F)cc21 [Example 89EU, methyl (S,E)-3-(4-((2-ethoxy-5-(trifluoromethyl)pyridin-3-yl)sulfonyl)-6-(2-methoxy-6-(trifluoromethyl)styryl)-3,4-dihydro-2H-benzo[b][1,4]-oxazin-2-yl)propanoate]	< 500	500 to 5000	
COC(=O)CC[C@H]1CN(S(=O)(=O)c2ccc(F)c(OC(F)F)c2)c2cc(/C=C(\C)c3c(F)cccc3Cl)ccc2O1 [Example 86AT, (S,E)-methyl 3-(6-(2-(2-chloro-6-fluorophenyl)prop-1-en-1-yl)-4-((3-(difluoromethoxy)-4-fluorophenyl)sulfonyl)-3,4-dihydro-2H-benzo[b][1,4]oxazin-2-yl)propanoate]	< 500	< 500	
N#CCC[C@H]1CN(S(=O)(=O)c2cccc(C(F)(F)F)c2)c2cc(CCc3c(F)cccc3Cl)ccc2O1			EC50 (RORγ-LBD; with 2 μM ursolic acid (RORγ antagonist), highest test concentration 10 μM): < 500 nM; EC50 (Gal4-RORγ-LBD; ursolic acid present, luciferase readout): < 500 nM
CCOc1ncc(C(F)(F)F)cc1S(=O)(=O)N1C[C@H](CCC(=O)O)Oc2ccc(/C=C(\C)c3c(F)cccc3Cl)cc21 [Example 34, (S,E)-3-(6-(2-(2-Chloro-6-fluorophenyl)prop-1-en-1-yl)-4-((2-ethoxy-5-(trifluoromethyl)pyridin-3-yl)sulfonyl)-3,4-dihydro-2H-benzo[b][1,4]oxazin-2-yl)propanoic acid]	< 500	500 to 5000	
Cc1cccc(C)c1/C=C/c1ccc2c(c1)N(S(=O)(=O)c1cccc(OC(F)F)c1)C[C@H](CCC(=O)O)O2 [Example 89AC, (S,E)-3-(4-((3-(difluoromethoxy)phenyl)sulfonyl)-6-(2,6-dimethylstyryl)-3,4-dihydro-2H-benzo[b][1,4]-oxazin-2-yl)propanoic acid]	< 500	500 to 5000	
CCOc1nn(CC)cc1S(=O)(=O)N1C[C@H](CCC(=O)OC)Oc2ccc(/C=C/c3ccsc3)cc21 [Example 89L, (S,E)-methyl 3-(4-((3-ethoxy-1-ethyl-1H-pyrazol-4-yl)sulfonyl)-6-(2-(thiophen-3-yl)vinyl)-3,4-dihydro-2H-benzo[b][1,4]oxazin-2-yl)propanoate]	< 500	500 to 5000	
C/C(=C\c1ccc2c(c1)N(S(=O)(=O)c1cccc(C(F)(F)F)c1)C[C@H](O)C2)c1c(F)cccc1Cl [Example 162, (R,E)-7-(2-(2-Chloro-6-fluorophenyl)prop-1-en-1-yl)-1-((3-(trifluoromethyl)phenyl)sulfonyl)-1,2,3,4-tetrahydroquinolin-3-ol]			EC50 (RORγ-LBD; RORγ-LBD TR-FRET assay): < 500 nM; TR-FRET Assay Max Response (RORγ-LBD; RORγ-LBD TR-FRET assay): *** (a value in the range of greater than 150 to 200); EC50 (Gal4-RORγ-LBD; [1]): < 500 nM; Gal4-RORγ Assay Max Response (Gal4-RORγ-LBD; [1]): ** (a value in the range of greater than 90 to 150)
O=S(=O)(c1cccc(C(F)(F)F)c1)N1C[C@@H](O)Cc2ccc(OCc3c(F)cccc3Cl)cc21 [Example 158, (S)-7-((2-Chloro-6-fluorobenzyl)oxy)-1-((3-(trifluoromethyl)phenyl)sulfonyl)-1,2,3,4-tetrahydroquinolin-3-ol]			EC50 (RORγ-LBD; RORγ-LBD TR-FRET assay): < 500 nM; EC50 (Gal4-RORγ-LBD; [1]): < 500 nM

Reference: US9896441B2 (Lycera Corporation, priority 2014, dated 2018)
